Data reported in US20100056627A1, “PHARMACEUTICAL COMPOSITIONS OF ALKYL GALLATES” (priority 2006, published 2010).
Values after ≈ are worked out from the molar mass of the structure shown. Values joined by “and” are separate entries in the source; they are usually repeats but may differ in a detail not shown here. Equal entries are not always repeated. Where two headings read alike, the source gives them in different places.

Assays:
clinical isolate MRSA = experiment: Oxacillin MIC against MRSA with concomitant octyl gallate and short-chain alkyl gallate (β-lactam sensitivity, ILSMR effect); assay type: cell-based, Staphylococcus aureus; conditions: for Concentration of octyl gallate for concomitant use necessary for obtaining oxacillin MIC not higher than 2 μg/mL, Range / Concentration of octyl gallate for concomitant use necessary for obtaining oxacillin MIC not higher than 2 μg/mL, C50 / Concentration of octyl gallate for concomitant use necessary for obtaining oxacillin MIC not higher than 2 μg/mL, C100: clinical isolate MRSA
[1] = tested on: clinical isolates MRSA and MSSA; conditions: for Recrystalized octyl gallate MIC: sodium ascorbate 0.5 mg/ml; for MIC50 / MIC: Staphylococcus aureus, MRSA|MSSA; for MIC50: read-out: MIC50, 24 h MIC, MRSA, trisodium citrate medium
[2] = tested on: Candida albicans ATCC 10231; experiment: Time required for killing mold, octyl gallate and propyl gallate (FIG. 2); assay type: cell-based; conditions: concomitant use of octyl gallate and propyl gallate, FIG. 2
From the text: FIG. 2 is a graph showing shortening of the time required for killing mold by the concomitant use of octyl gallate and propyl gallate against Candida albicans ATCC 10231.

[3] = tested on: gram-positive and gram-negative bacteria; experiment: MIC (minimum growth inhibition concentration), 2-fold serial agar plate dilution on Mueller Hinton II Agar, with concomitant alkyl gallate and salt; conditions: for MIC: 24 h
influenza virus B/T/1/05 = experiment: Time course of virucidal activity at 37° C., infectivity by plaque assay in MDCK cells (FIGS. 6 to 12); assay type: cell-based
Protocol: The experiments in FIGS. 7 to 12 were carried out at 37° C. The infectivity of viruses was determined using MDCK cells by the plaque assay method.
This virucidal activity of octyl gallate was reinforced by propyl gallate also against influenza virus A/Aichi (H3N2) in the same manner as above.

fungi (mold) = experiment: MIC of octyl gallate against fungi (mold) with trisodium citrate and propyl gallate; assay type: cell-based; conditions: for MIC: 24 h, read-out: Octyl gallate MIC, SDA (+0.9% trisodium citrate), 24 hr, triplicate

CCCCCCCCOC(=O)c1cc(O)c(O)c(O)c1 [octyl gallate]
Concentration of octyl gallate for concomitant use necessary for obtaining oxacillin MIC not higher than 2 μg/mL, Range (clinical isolate MRSA; Propyl gallate 12.5): 6.25 to 12.5 µg/mL | Concentration of octyl gallate for concomitant use necessary for obtaining oxacillin MIC not higher than 2 μg/mL, C50 (clinical isolate MRSA; Propyl gallate 25): 3.13 µg/mL | Concentration of octyl gallate for concomitant use necessary for obtaining oxacillin MIC not higher than 2 μg/mL, C100 (clinical isolate MRSA; Propyl gallate 25): 6.25 µg/mL | Concentration of octyl gallate for concomitant use necessary for obtaining oxacillin MIC not higher than 2 μg/mL, Range (clinical isolate MRSA; Propyl gallate 25): 1.56 to 6.25 µg/mL | Concentration of octyl gallate for concomitant use necessary for obtaining oxacillin MIC not higher than 2 μg/mL, C50 (clinical isolate MRSA; short-chain alkyl gallate None): 25 µg/mL | Concentration of octyl gallate for concomitant use necessary for obtaining oxacillin MIC not higher than 2 μg/mL, C100 (clinical isolate MRSA; short-chain alkyl gallate None): 25 µg/mL | Concentration of octyl gallate for concomitant use necessary for obtaining oxacillin MIC not higher than 2 μg/mL, Range (clinical isolate MRSA; short-chain alkyl gallate None): 25 µg/mL | octyl gallate concentration at which a decrease of the MIC value of oxacillin to MRSA occurs (clinical isolate MRSA; in the coexistence of propyl gallate or isoamyl gallate): 1.56 µg/mL | Concentration of octyl gallate for concomitant use for oxacillin MIC of 2 μg/mL or lower, 100% of MRSA strains (C100) (clinical isolate MRSA; isoamyl gallate coexisting at 25 μg/mL): 1.56 µg/mL | Concentration of octyl gallate for concomitant use for oxacillin MIC of 2 μg/mL or lower, 100% of MRSA strains (C100) (clinical isolate MRSA; propyl gallate coexisting at 25 μg/mL): 6.25 µg/mL | octyl gallate concentration at which an ILSMR effect was confirmed (clinical isolate MRSA; several bacterial strains, oxacillin with octyl gallate): 12.5 µg/mL | Recrystalized octyl gallate MIC ([1]; MHA (+0.9% disodium hydrogen citrate), DDW, 24 h): 0.625 µg/mL and 1.25 µg/mL | Recrystalized octyl gallate MIC ([1]; MHA (+0.9% trisodium citrate), propyl gallate 100 mg/L (with J-1216), 24 h): 1.25 µg/mL | Recrystalized octyl gallate MIC ([1]; MHA (+0.9% trisodium citrate), propyl gallate 200 mg/L (with J-1216), 24 h): 0.625 µg/mL and 1.25 µg/mL | octyl gallate concentration at which all strains were killed ([1]; MRSA (21 strains) and MSSA (8 strains), concomitant propyl gallate 50 mg/L, disodium hydrogen citrate): 1.25 mg/L | MIC50 ([1]; 24 h, J-1216 600 mg/L): 20 µg/mL (≈ 70.8 µM) | MIC50 ([1]; 24 h, propyl gallate 75 mg/L): 10 µg/mL (≈ 35.4 µM) | MIC50 ([1]; 24 h, propyl gallate 100 mg/L): 2.5 µg/mL (≈ 8.85 µM) | MIC50 ([1]; 24 h, propyl gallate 200 mg/L): 2.5 µg/mL (≈ 8.85 µM) | MIC ([1]; 24 h, read-out: MIC100, 24 h MIC, MRSA, disodium hydrogen citrate medium, DDW): 2.5 µg/mL (≈ 8.85 µM) | MIC ([1]; 24 h, read-out: MIC100, 24 h MIC, MRSA, disodium hydrogen citrate medium, propyl gallate 50 mg/L): 1.25 µg/mL (≈ 4.43 µM) | MIC ([1]; 24 h, read-out: MIC100, 24 h MIC, MRSA, trisodium citrate medium, J-1216 600 mg/L): 50 µg/mL (≈ 177 µM) | MIC ([1]; 24 h, read-out: MIC100, 24 h MIC, MRSA, trisodium citrate medium, propyl gallate 75 mg/L): 10 µg/mL (≈ 35.4 µM) | MIC ([1]; 24 h, read-out: MIC100, 24 h MIC, MRSA, trisodium citrate medium, propyl gallate 100 mg/L): 5 µg/mL (≈ 17.7 µM) | MIC ([1]; 24 h, read-out: MIC100, 24 h MIC, MRSA, trisodium citrate medium, propyl gallate 200 mg/L): 5 µg/mL (≈ 17.7 µM) | MIC ([1]; 24 h, read-out: Octyl gallate MIC, CAMHA, isoamyl gallate 50 μg/mL, 24 h): ≤ 0.0244 µg/mL | MIC ([1]; 24 h, read-out: Recrystalized octyl gallate MIC, MHA (+0.9% disodium hydrogen citrate), sodium ascorbate 0.5 mg/ml, DDW, 24 h): 2.5 µg/mL (≈ 8.85 µM) | MIC ([1]; 24 h, read-out: Recrystalized octyl gallate MIC, MHA (+0.9% disodium hydrogen citrate), sodium ascorbate 0.5 mg/ml, propyl gallate 50 mg/L, 24 h): 1.25 µg/mL (≈ 4.43 µM) | MIC ([1]; 24 h, read-out: Recrystalized octyl gallate MIC, MHA (+0.9% trisodium citrate), sodium ascorbate 0.5 mg/ml, propyl gallate 100 mg/L (with J-1216), 24 h): 2.5 µg/mL (≈ 8.85 µM) | MIC ([1]; 24 h, read-out: Recrystalized octyl gallate MIC, MHA (+0.9% trisodium citrate), sodium ascorbate 0.5 mg/ml, propyl gallate 200 mg/L (with J-1216), 24 h): 2.5 µg/mL (≈ 8.85 µM) | MIC ([1]; 48 h, read-out: Octyl gallate MIC, Isoamyl G none, 48 h, strain = c6 of each row): 31.2 µg/mL (≈ 111 µM) | MIC Range, 24 h MIC, MRSA ([1]; disodium hydrogen citrate medium, DDW): 0.625 to 2.5 µg/mL | MIC Range, 24 h MIC, MRSA ([1]; disodium hydrogen citrate medium, propyl gallate 50 mg/L): 0.625 to 1.25 µg/mL | MIC Range, 24 h MIC, MRSA ([1]; trisodium citrate medium, J-1216 600 mg/L): 20 to 50 µg/mL | MIC Range, 24 h MIC, MRSA ([1]; trisodium citrate medium, propyl gallate 75 mg/L): 2.5 to 10 µg/mL | MIC Range, 24 h MIC, MRSA ([1]; trisodium citrate medium, propyl gallate 100 mg/L): 1.25 to 5 µg/mL | MIC Range, 24 h MIC, MRSA ([1]; trisodium citrate medium, propyl gallate 200 mg/L): 0.0625 to 5 µg/mL | time required for killing mold [2]: shortened to a large extent | MIC ([3]; read-out: Octyl gallate MIC, NaCl 4%, isoamyl gallate 100 μg/mL): 0.98 µg/mL | MIC ([3]; read-out: Recrystalized octyl gallate MIC, Dec. 24, 2007, MHA (+0.9% disodium hydrogen citrate), sodium ascorbate 0.5 mg/ml, propyl gallate 300 mg/L): > 100 µg/mL | change of MIC value of octyl gallate by isoamyl gallate ([3]; as the amount of NaCl added (2 to 4%) increases (Table 4)): markedly decreased | effect on bacteria of concomitant use with propyl gallate ([3]; propyl gallate 300 mg/L, except for three strains of bacteria): completely killed | MIC of octyl gallate lower than that of chlorhexidine gluconate, maximum ([3]; with isoamyl gallate at or below MIC and NaCl): ≤ 640 times | time required for killing viruses (influenza virus B/T/1/05; concomitant use of octyl gallate and propyl gallate, FIG. 6): shortened to a large extent | virucidal activity of octyl gallate alone (influenza virus B/T/1/05; influenza virus B/T/1/05, FIG. 7): has a virucidal activity | time until the infectivity to cells is lost (influenza virus B/T/1/05; octyl gallate 30 mg/L and propyl gallate 300 mg/L, 37° C., FIG. 12): ≤ 1 min | MIC (fungi (mold); phosphate buffer (1 mM), propyl gallate 0): 20 µg/mL | MIC (fungi (mold); propyl gallate 300 μg/mL): 10 µg/mL | MIC (fungi (mold); propyl gallate 1000 μg/mL): 10 µg/mL | antimicrobial activity against fungi (mold) (fungi (mold); […]): reinforced
